Columns and labels:
[1] = target: T1, dCK (Homo sapiens, UniProt P27707, C45S/C59S/C9S/S74E); assay: Affinity assay: Thermal Shift Assay (TSA), dCK thermal stabilization; assay type: binding; details: dCK protein (C9S, C45S, C59S, S74E); 5 sM of protein, 50 sM of compound, 2% DMSO; mean ± SD
T1 construct: inferred from HisTrap purification with imidazole elution; made in house; host or cells: Escherichia coli BL21 pRIL
Method: dCK protein contained three solvent exposed cysteines mutated to serines in order to generate better quality crystals (C9S, C45S, C59S) and a serine mutated to glutamic acid (S74E). The S74E mutation mimics the phosphorylated state of this serine, which favors the open conformation of the enzyme, making it competent for nucleoside binding to evaluate the binding affinity with compounds. BL21 pRIL Escherichia Coli cells were transformed with dCK-plasmid. Cells were grown in LB media containing 100 μg/ml ampicillin and 34 μg/ml chloramphenicol at 18° C. for 20 h after induction with 1 mM IPTG. Cells were re-suspended in 50 mM TRIS, pH 8, 500 mM NaCl, 30 mM imidazole and 10% glycerol buffer containing one EDTA free anti-protease tablet (Roche). After sonication and centrifugation (30,000×g), the supernatant was loaded on a 5 ml HisTrap FF column (GE healthcare) pre-equilibrated with resuspension buffer. Protein was then eluted by re-suspension buffer containing 500 mM imidazole. Protein eluted fractions were mixed and concentrated. Protein was further purified by size exclusion chromatography (superdex 200 16/600, GE healthcare) in 20 mM HEPES, pH 7.5, and 200 mM NaCl before concentration to 30 mg/ml and storage at −80° C.
Thermal Shift Assay (TSA) experiments were performed in triplicate in 384-well PCR white plates (Thermo Scientific, AB-3384) in the assay buffer containing 20 mM HEPES, pH 7.5 and 200 mM NaCl. Final concentrations were adjusted to 5 sM of protein, 50 sM of compound (final 2% DMSO) and dye diluted to 1:1000, as recommended by manufacturer (Protein Thermal Shift Dye, ThermoFisher Scientific). […] Plates were centrifuged at 1000 rpm for 2 min at 4° C. Thermal melting experiments were carried using a CFX-384 Connect RT-PCR (Bio-Rad). Plates were first equilibrated at 25° C.; then, the plates were heated from 25 to 95° C. by 0.5° C./min steps. Raw fluorescence data were treated, and the melting temperatures (Tm) were calculated using CFX Manager 3.1 software (Bio-Rad). ΔTm represents the difference in Tm between the protein in the presence of compound and the protein alone (both at 2% DMSO). Each experiment was performed at least twice (with technical triplicates) and data are presented as the mean f SD in Table 1.

[2] = system: CCRF-CEM cell line (T-cell acute lymphoblastic leukemia); assay: Cellular assay: inhibition of CCRF-CEM cell proliferation in presence of dT and dC (CellTiter-Blue); assay type: cell-based; details: Homo sapiens, read-out: CELLULAR ASSAY IC50 (nM), 200 μM dT and 1 μM dC, 72 hours, mean ± SD
Method: The cellular assay was set up to assess the ability to inhibit dCK activity in a cellular model. The model was developed with a T-cell acute lymphoblastic leukemia cell line (CCRF-CEM), because of its high dependence on the salvage pathway, thus on dCK activity. Cellular assays were performed to assess the inhibition of cell proliferation under two conditions: i) in the presence of the molecule alone to determine the non-specific effect on cells, independent of dCK (non-specific toxicity) and ii) in the presence of an inhibitor of the De Novo pathway to determine the ability of molecules to inhibit dCK and decrease tumor proliferation (activity on dCK). The inhibitor of the De Novo pathway chosen for the experiments was thymidine (dT), a physiological inhibitor of ribonucleotide reductase which arrests cell proliferation in phase S. The dTTP produced via thymidine kinase from dT acts as a RNR inhibitor by an allosteric regulation of the R1 subunit (FIG. 1). The addition of the nucleoside deoxycytidine (dC) in the medium allows the rescue of cell proliferation by passing only through the salvage pathway, mediated by dCK. Therefore, cell proliferation under these conditions (+dT+dC) is dCK dependent and it is possible to determine the IC50 of dCK inhibitors on the inhibition of cell proliferation. Results are expressed as % cell proliferation relative to the control with DMSO in Table 1.
CCFR-CEM cells were grown at 37° C. in RPMI 1640 with L-glutamine, supplemented with 100 units/ml penicillin, […] streptomycin, and 10% heat-inactivated foetal calf serum. The experiments were carried out on 96-well plates under the following conditions: 14,000 cells per well, RPMI 1640 culture medium supplemented with 10% heat-inactivated foetal calf serum, 200 sM of dT, 1 sM of dC and a range of dilutions of each molecule ranging from 40 μM to 10 μM, depending on the activity of the molecules (final 0.2% DMSO). Cells were incubated for 72 hours under these different conditions and finally, incubated with 10 μl/well of CellTiter-Blue reagent (Promega) for 4 hours at 37° C. The amount of reduced dye formed by metabolically active cells was quantified by its fluorescence measured at 560 nm (excitation) and 590 nm (emission) in a microplate reader (CLARIOstar, BMG Labtech). A blank well without cells was used as a background control. Each experiment was performed at least three times (with technical triplicates) and data are presented as the mean f SD.

[3] = system: CCRF-CEM T-ALL cell line; assay: In vivo systemic leukemia model: NSG mice inoculated intravenously with luciferase-expressing CCRF-CEM cells; details: for effect on disease progression / disease burden (bioluminescence): CCRF-CEM leukemia bearing NSG mice, dT 1.5 g/Kg, OR0642 40 mg/Kg (hydrochloride salt) i.p., FIG. 5; for day around which most of the mice died: the two components administered separately, FIG. 8
Method: Healthy 6 to 9 weeks-old male mice received 0.1×10^6 luciferase transduced-CCRF-CEM cells in the tail vein on Day 0 and were randomly assigned in four groups to receive intraperitoneal injections from Day 3 (Vehicle (n=8), dT (n=8), OR0642 (n=9) and dT+OR0642 (n=9)). […] Doses administered were: dT at 1.5 g/Kg, OR0642 at 40 mg/Kg and dT+OR0642 at 1.5 g/Kg and 40 mg/Kg, respectively. Vehicle was saline solution (0.9% NaCl) supplemented with 10% Kolliphor EL. OR0642 was administered in its hydrochloride salt form. Drug administration protocol is detailed in FIG. 4. Bioluminescence analysis was performed once/week using PhotonIMAGER Optima (Biospace Lab) following addition of endotoxin-free luciferin (30 mg/kg, Promega). Peripheral blood was obtained at Day 21 to determine the fraction of human blasts using flow cytometry. […] Analyses were performed on a Life Science Research Fortessa flow cytometer with DIVA software (BD Biosciences). The number of ALL cells/L peripheral blood was determined by using CountBright beads (Invitrogen, C36950) using described protocol. Daily monitoring of mice for symptoms of disease (ruffled coat, hunched back, weakness and reduced motility) determined the time of killing for injected animals with signs of distress. Kaplan-Meier curves, bioluminescence quantifications and statistical analyses were generated using Prism (Graphpad Software). Bioluminescence data were presented as the mean f SEM. Comparison of bioluminescence data at Day 21 was performed using One way ANOVA Kruskal-Wallis Test and Dunn's Multiple Comparison Test. Comparison of hCD45 populations was performed using One way ANOVA Kruskal-Wallis Test and Dunn's Multiple Comparison Test. Median survival times were compared using Log-Rank (Mantel-Cox) Test.

T1 sequence (P27707 whole entry C9S/C45S/C59S/S74E): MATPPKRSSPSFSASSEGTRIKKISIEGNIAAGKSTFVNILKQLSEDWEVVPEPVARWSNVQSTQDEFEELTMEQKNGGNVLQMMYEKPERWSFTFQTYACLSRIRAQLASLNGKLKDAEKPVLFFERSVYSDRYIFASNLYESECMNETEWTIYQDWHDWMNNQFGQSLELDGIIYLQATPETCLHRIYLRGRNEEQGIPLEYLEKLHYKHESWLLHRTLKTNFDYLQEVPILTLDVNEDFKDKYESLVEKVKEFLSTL

| Structure (SMILES) | AFFINITY ASSAY +ΔTm (°) [1] | IC50 [2] | effect on disease progression / disease burden (bioluminescence) [3] | day around which most of the mice died [3] |
| --- | --- | --- | --- | --- |
| CCCN(c1nc(-c2nccc(N)n2)cs1)c1cc(-c2ccc(OCC(=O)N3CCN(C)CC3)cc2)ccc1C [OR0597, 4-(4-Aminopyrimidin-2-yl)-N-(4-methyl-4′-(2-(4-methylpiperazin-1-yl)-2-oxoethoxy)-[1,1′-biphenyl]-3-yl)-N-propylthiazol-2-amine] | 17.1 ± 0.1 ° |  |  |  |
| CCCN(c1nc(-c2nc(N)cc(N)n2)cs1)c1cc(-c2ccc(S(=O)(=O)N3CCN(C)CC3)cc2)ccc1C [OR0607, 2-(2-((4-Methyl-4′-((4-methylpiperazin-1-yl)sulfonyl)-[1,1′-biphenyl]-3-yl)(propyl)amino)thiazol-4-yl)pyrimidine-4,6-diamine] | 19.2 ± 0.6 ° | 31 ± 27 nM |  |  |
| Cc1ccc(-n2cc(CNS(C)(=O)=O)nn2)cc1N(CC(C)C)c1nc(-c2nc(N)cc(N)n2)cs1 [OR0609, N-((1-(3-((4-(4,6-Diaminopyrimidin-2-yl)thiazol-2-yl)(isobutyl)amino)-4-methylphenyl)-1H-1,2,3-triazol-4-yl)methyl) methanesulfonamide] | 13.5 ± 0.7 ° | 3180 ± 611 nM |  |  |
| CCCN(c1nc(-c2nc(N)cc(N)n2)cs1)c1cc(-c2ccc(S(=O)(=O)N3CCN(C)CC3)nc2)ccc1C [OR0627, 2-(2-((2-Methyl-5-(6-((4-methylpiperazin-1-yl)sulfonyl)pyridin-3-yl)phenyl)(propyl)amino)thiazol-4-yl)pyrimidine-4,6-diamine] | 17.5 ± 0.4 ° | 48 ± 17 nM |  |  |
| CCCN(c1nc(-c2nc(N)cc(N)n2)cs1)c1cc(-c2ccc(OCC(=O)N3CCN(C)CC3)nc2)ccc1C [OR0630, 2-((5-(3-((4-(4,6-Diaminopyrimidin-2-yl)thiazol-2-yl)(propyl)amino)-4-methylphenyl)pyridin-2-yl)oxy)-1-(4-methylpiperazin-1-yl)ethan-1-one] | 17.4 ± 0.2 ° |  |  |  |
| Cc1ccc(Br)cc1N(CC(C)C)c1nc(-c2nc(N)cc(N)n2)cs1 [OR0637-1, 2-(2-((5-Bromo-2-methylphenyl)(isobutyl)amino)thiazol-4-yl)pyrimidine-4,6-diamine] | 14.9 ± 0.2 ° | 8310 ± 1870 nM |  |  |
| CCCN(c1nc(-c2nc(N)cc(N)n2)cs1)c1cc(-c2ccc(S(=O)(=O)N3CCN(C)CC3)cc2C(F)(F)F)ccc1C [OR0642, 2-(2-((4-Methyl-4′-((4-methylpiperazin-1-yl)sulfonyl)-2′-(trifluoromethyl)-[1,1′-biphenyl]-3-yl)(propyl)amino)thiazol-4-yl)pyrimidine-4,6-diamine] |  |  | did not show any anti-proliferative effect | ~26 days |
| CCCN(c1nc(-c2nc(N)cc(N)n2)cs1)c1cc(-c2ccc(S(=O)(=O)N3CCN(CC(=O)O)CC3)cc2)ccc1C [OR0649, 2-(4-((3′-((4-(4,6-Diaminopyrimidin-2-yl)thiazol-2-yl)(propyl)amino)-4′-methyl-[1,1′-biphenyl]-4-yl)sulfonyl)piperazin-1-yl)acetic acid] | 17.6 ± 1.3 ° | 13400 ± 546 nM |  |  |
| CCCN(c1nc(-c2nc(N)cc(N)n2)cs1)c1cc(Br)ccc1C [OR0652-1, 2-(2-((5-Bromo-2-methylphenyl)(propyl)amino)thiazol-4-yl)pyrimidine-4,6-diamine] | 13.9 ± 0.2 ° | 11300 ± 1370 nM |  |  |
| CCCN(c1nc(-c2nc(N)cc(N)n2)cs1)c1cc(-c2ccc(S(=O)(=O)N3CCNCC3)nc2C(F)(F)F)ccc1C [OR0658, 2-(2-((2-Methyl-5-(6-(piperazin-1-ylsulfonyl)-2-(trifluoromethyl)pyridin-3-yl)phenyl)(propyl)amino)thiazol-4-yl)pyrimidine-4,6-diamine] | 22.4 ± 0.1 ° | 11.3 ± 2.1 nM |  |  |
| Cc1cn([C@H]2C[C@H](O)[C@@H](CO)O2)c(=O)[nH]c1=O [dT, 1-[(2R,4S,5R)-4-Hydroxy-5-(hydroxymethyl)oxolan-2-yl]-5-methylpyrimidine-2,4(1H,3H)-dione, reference compound] |  |  | scarcely reduced the disease burden | ~26 days |

Continued, in another order:

| AFFINITY ASSAY +ΔTm (°) [1] | IC50 [2] | Structure (SMILES) | effect on disease progression / disease burden (bioluminescence) [3] | day around which most of the mice died [3] |
| --- | --- | --- | --- | --- |
| 19.2 ± 0.1 ° | 7.3 ± 2.5 nM | CCCN(c1nc(-c2nc(N)cc(N)n2)cs1)c1cc(-c2cnc(S(=O)(=O)N3CCN(C)CC3)cc2C)ccc1C [OR0652, 2-(2-((2-Methyl-5-(4-methyl-6-((4-methylpiperazin-1-yl)sulfonyl)pyridin-3-yl)phenyl)(propyl)amino)thiazol-4-yl)pyrimidine-4,6-diamine] |  |  |
| 21.6 ± 0.4 ° | 2.8 ± 1.3 nM | CCCN(c1nc(-c2nc(N)cc(N)n2)cs1)c1cc(-c2ccc(S(=O)(=O)N3CCN(C)CC3)nc2C)ccc1C [OR0653, 2-(2-((2-Methyl-5-(2-methyl-6-((4-methylpiperazin-1-yl)sulfonyl)pyridin-3-yl)phenyl)(propyl)amino)thiazol-4-yl)pyrimidine-4,6-diamine] |  |  |
| 18.3 ± 0.4 ° | 610 ± 153 nM | CCCN(c1nc(-c2nc(N)cc(N)n2)cs1)c1cc(-c2cnc(OC)cc2C(F)(F)F)ccc1C [OR0654, 2-(2-((5-(6-Methoxy-4-(trifluoromethyl)pyridin-3-yl)-2-methylphenyl)(propyl)amino)thiazol-4-yl)pyrimidine-4,6-diamine] |  |  |
| 19.0 ± 0.0 ° | 251 ± 36 nM | CCCN(c1nc(-c2nc(N)cc(N)n2)cs1)c1cc(-c2cnc(O)cc2C(F)(F)F)ccc1C [OR0655, 2-(2-((5-(6-Hydroxy-4-(trifluoromethyl)pyridin-3-yl)-2-methylphenyl)(propyl)amino)thiazol-4-yl)pyrimidine-4,6-diamine] |  |  |
| 21.3 ± 0.8 ° | 3.8 ± 2 nM | CCCN(c1nc(-c2nc(N)cc(N)n2)cs1)c1cc(-c2cnc(S(=O)(=O)N3CCN(C)CC3)cc2C(F)(F)F)ccc1C [OR0656, 2-(2-((2-Methyl-5-(6-((4-methylpiperazin-1-yl)sulfonyl)-4-(trifluoromethyl)pyridin-3-yl)phenyl)(propyl)amino)thiazol-4-yl)pyrimidine-4,6-diamine] |  |  |
| 22.0 ± 0.4 ° | 1.6 ± 0.9 nM | CCCN(c1nc(-c2nc(N)cc(N)n2)cs1)c1cc(-c2ccc(S(=O)(=O)N3CCN(C)CC3)nc2C(F)(F)F)ccc1C [OR0657, 2-(2-((2-Methyl-5-(6-((4-methylpiperazin-1-yl)sulfonyl)-2-(trifluoromethyl)pyridin-3-yl)phenyl)(propyl)amino)thiazol-4-yl)pyrimidine-4,6-diamine] |  |  |

Source: US20250092032A1, “DEOXYCYTIDINE KINASE INHIBITORS” (CENTRE NATIONAL DE LA RECHERCHE SCIENTIFIQUE, priority 2022, published 2025)
